This assay concerns the target T1, human FXR (Homo sapiens, UniProt Q96RI1).
T1 construct: expressed in transfected cells
T1 sequence (Q96RI1 1-486): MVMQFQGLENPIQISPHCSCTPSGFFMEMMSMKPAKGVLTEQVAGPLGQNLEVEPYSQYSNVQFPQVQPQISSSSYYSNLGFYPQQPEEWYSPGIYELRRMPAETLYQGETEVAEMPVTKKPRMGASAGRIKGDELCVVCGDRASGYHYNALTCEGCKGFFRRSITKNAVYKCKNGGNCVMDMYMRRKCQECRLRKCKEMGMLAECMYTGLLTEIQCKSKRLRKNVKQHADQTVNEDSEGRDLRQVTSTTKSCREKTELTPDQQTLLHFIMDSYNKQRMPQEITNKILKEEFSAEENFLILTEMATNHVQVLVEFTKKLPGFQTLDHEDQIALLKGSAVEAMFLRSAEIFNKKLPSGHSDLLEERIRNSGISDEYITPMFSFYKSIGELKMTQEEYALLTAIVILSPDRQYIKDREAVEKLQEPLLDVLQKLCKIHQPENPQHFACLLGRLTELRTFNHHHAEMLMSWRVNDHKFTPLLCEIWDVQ
Description: FXR reporter assay (cellular FXR activities). It is filed as cell-based. As to conditions: for EC50: FXR reporter cells, 24 hours incubation, luciferase, read-out: Reporter Cell EC50; for Emax: read-out: Emax (%) (GW4064 Emax = 100%). Put shortly:
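Reporter cells overexpressing human FXR exposed to compound dilutions for 24 h at 37 °C, 5% CO2. Luciferase signal used to calculate EC50.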
For orientation: In a reporter assay the amount or activity of a reporter protein is the signal.

Experimental findings from patent publication US10988449B2, “Isoxazole derivatives as nuclear receptor agonists and uses thereof” (IL DONG PHARMACEUTICAL CO., LTD., priority 2017, dated 2021) are described below.

On to `O=C(O)c1cccc(C#Cc2c(Cl)cc(OCc3c(-c4c(Cl)cccc4Cl)noc3C3CC3)cc2Cl)c1` [Compound I-34, 3-((2,6-dichloro-4-((5-cyclopropyl-3-(2,6-dichlorophenyl)isoxazol-4-yl)methoxy)phenyl)ethynyl)benzoic acid], for which the EC50 was in the range of 60 to 200 nM and the Emax stood at 100%.
On to `COC(Cn1ccc2c(C#Cc3ccc(OCc4c(-c5c(Cl)cccc5Cl)noc4C4CC4)cc3Cl)cc(C(=O)O)cc21)OC` [Compound I-96, 4-((2-chloro-4-((5-cyclopropyl-3-(2,6-dichlorophenyl)isoxazol-4-yl)methoxy)phenyl)ethynyl)-1-(2,2-dimethoxyethyl)-1H-indole-6-carboxylic acid], for which the half-maximal effective concentration (EC50) is at most 20 nM and the Emax is 98%.
For `CS(=O)(=O)Nc1cc(C#Cc2ccc(OCc3c(-c4c(Cl)cccc4Cl)noc3C3CC3)cc2Cl)cc(C(=O)O)c1` [Compound I-86, 3-((2-chloro-4-((5-cyclopropyl-3-(2,6-dichlorophenyl)isoxazol-4-yl)methoxy)phenyl)ethynyl)-5-(methylsulfonamido)benzoic acid], in that order: 60 to 200 nM and 100%.
`CCOC(=O)Nc1cc(C#Cc2ccc(OCc3c(-c4c(Cl)cccc4Cl)noc3C3CC3)cc2Cl)cc(C(=O)O)c1` [Compound I-74, 3-((2-chloro-4-((5-cyclopropyl-3-(2,6-dichlorophenyl)isoxazol-4-yl)methoxy)phenyl)ethynyl)-5-((ethoxycarbonyl)amino)benzoic acid]: the EC50 was at most 20 nM and the Emax was over 100%.
For `O=C(O)c1cc(C#Cc2ccc(OCc3c(-c4c(Cl)cccc4Cl)noc3C3CC3)cc2Cl)c2ccn(CCO)c2c1` [Compound I-97, 4-((2-chloro-4-((5-cyclopropyl-3-(2,6-dichlorophenyl)isoxazol-4-yl)methoxy)phenyl)ethynyl)-1-(2-hydroxyethyl)-1H-indole-6-carboxylic acid], in that order: at most 20 nM and 94%.
On to `CCCc1nc2cc(C#Cc3ccc(OCc4c(-c5c(Cl)cccc5Cl)noc4C4CC4)cc3Cl)cc(C(=O)O)c2o1` [Compound I-105, 5-((2-chloro-4-((5-cyclopropyl-3-(2,6-dichlorophenyl)isoxazol-4-yl)methoxy)phenyl)ethynyl)-2-propylbenzo[d]oxazole-7-carboxylic acid], for which the EC50 was at most 20 nM and the maximal response (Emax) was over 100%.
With `O=C(O)c1cccc(C#Cc2ccc(OCc3c(-c4c(Cl)cccc4Cl)noc3C3CC3)cc2Cl)n1` [Compound I-19, 6-((2-chloro-4-((5-cyclopropyl-3-(2,6-dichlorophenyl)isoxazol-4-yl)methoxy)phenyl)ethynyl)picolinic acid], the EC50 is at most 20 nM and the Emax came out at 99%.
Consider `O=C(O)c1cc(C#Cc2ccc(OCc3c(-c4c(Cl)cccc4Cl)noc3C3CC3)cc2Cl)cc(OC(F)(F)F)c1` [Compound I-39, 3-((2-chloro-4-((5-cyclopropyl-3-(2,6-dichlorophenyl)isoxazol-4-yl)methoxy)phenyl)ethynyl)-5-(trifluoromethoxy)benzoic acid], for which the EC50 is 200 to 1000 nM and the Emax stood at 85%.
For `O=C(O)c1cc(C#Cc2ccc(OCc3c(-c4c(Cl)cccc4Cl)noc3C3CC3)cc2Cl)cc(CN2CCC2)c1` [Compound I-43, 3-(azetidin-1-ylmethyl)-5-((2-chloro-4-((5-cyclopropyl-3-(2,6-dichlorophenyl)isoxazol-4-yl)methoxy)phenyl)ethynyl)benzoic acid], the EC50 lay within 60 to 200 nM and the Emax is over 100%.
For the compound `O=C(O)c1ccnc(C#Cc2ccc(OCc3c(-c4c(Cl)cccc4Cl)noc3C3CC3)cc2Cl)c1` [Compound I-18, 2-((2-chloro-4-((5-cyclopropyl-3-(2,6-dichlorophenyl)isoxazol-4-yl)methoxy)phenyl)ethynyl)isonicotinic acid], the EC50 fell in the range of 200 to 1000 nM and the Emax is 87%.

The EC50 is the concentration giving half of the maximal effect. The term Emax denotes the maximal effect, on the per cent scale that the assay sets.
